These results are taken from patent US20240383869A1, “ARYLACETYL INHIBITORS OF TG2 AND USES THEREOF” (UNIVERSITY OF OTTAWA, priority 2021, published 2024).

Read-outs that look alike come from different tables or passages of the source.

The target in the assay is T1, hTG2 (Homo sapiens, UniProt P21980).
T1 sequence (P21980 1-687): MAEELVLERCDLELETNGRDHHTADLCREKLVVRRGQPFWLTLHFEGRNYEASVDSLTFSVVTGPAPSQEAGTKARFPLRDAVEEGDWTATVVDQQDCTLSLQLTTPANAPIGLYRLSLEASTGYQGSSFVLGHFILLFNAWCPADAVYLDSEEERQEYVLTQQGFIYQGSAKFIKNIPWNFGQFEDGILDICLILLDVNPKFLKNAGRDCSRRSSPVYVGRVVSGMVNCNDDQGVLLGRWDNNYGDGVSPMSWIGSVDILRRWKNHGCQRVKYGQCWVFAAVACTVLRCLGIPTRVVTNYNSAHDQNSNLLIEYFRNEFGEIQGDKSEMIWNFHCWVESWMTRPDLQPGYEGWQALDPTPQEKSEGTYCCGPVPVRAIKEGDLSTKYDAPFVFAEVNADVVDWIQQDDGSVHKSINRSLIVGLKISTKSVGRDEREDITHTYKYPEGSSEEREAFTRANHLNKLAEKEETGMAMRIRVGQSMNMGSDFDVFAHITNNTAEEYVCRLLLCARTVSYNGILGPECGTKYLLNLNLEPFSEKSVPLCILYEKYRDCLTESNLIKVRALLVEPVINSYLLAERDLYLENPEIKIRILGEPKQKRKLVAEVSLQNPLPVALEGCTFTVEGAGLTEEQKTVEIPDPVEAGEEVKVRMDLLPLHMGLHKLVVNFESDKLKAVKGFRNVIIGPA
The experiment in a line: biochemical. The note with it: for Ki: read-out: KI (converted). The method, then:
The ability of the compounds to inhibit TG2 transamidase activity and the kinetics of TG2 inhibition were investigated using a colorimetric activity assay, as follows:
Colorimetric transamidase activity assay. The activities of hTG1, hTG2 and hTG6 were measured via a colorimetric assay using the chromogenic substrate Cbz-Glu(γ-p-nitrophenyl ester)Gly (AL5), as described (Leblanc, A. et al., “Kinetic studies of guinea pig liver transglutaminase reveal a general-base-catalyzed deacylation mechanism.” Biochemistry 2001, 40 (28), 8335-8342). Assays were conducted at 25° C. in 50 mM MOPS buffer (pH 6.95) containing 7.5 mM CaCl2. […] The substrate AL5 was prepared in as a stock solution in DMSO such that the final concentration of this co-solvent was constant at 2.5% v/v. Stock solutions of the inhibitors were made in water ranging in concentration from 100-500 μM. The reaction was initiated with the addition of enzyme, 0.10 μM hTG1, 0.25 μM hTG2 (4.6 mU/mL) or 0.32 μM hTG6. Formation of hydrolysis product, p-nitrophenolate (pNP), was monitored at 405 nm in a polystyrene 96-well microplate using a BioTek Synergy 4 plate reader. The observed first-order rate constants of inactivation (kobs) were determined via non-linear regression fit to a mono-exponential model (Eqn 1) of absorbance versus time curves. These rate constants (kobs) were in turn fit to a saturation kinetics model (Eqn 2), by non-linear regression, providing the kinetic parameters kinact and KI, as previously described by Stone and Hofsteenge (Stone, S. R. and Hofsteenge, J., “Specificity of activated human protein C.” Biochem. J. 1985, 230 (2), 497-502). […] Experiments were completed in triplicate at minimum.
Fitting of this time-dependent inactivation to a monoexponential equation gave first-order rate constants, kobs. […] In some cases, the kinetic data were fitted to a linear double reciprocal equation.

The mark [1] stands for this setting: fit to saturation kinetics model, 25° C., pH 6.95, 100 μM AL5.
Setting [2] is: fit to saturation kinetics model, 25° C., pH 6.95, 100 μM AL5, read-out: kinact (converted).
Setting [3] is: fit to saturation kinetics model, 25° C., pH 6.95, 100 μM AL5, read-out: kinact/KI (converted).
[4] abbreviates: values determined using a double-reciprocal analysis.
[5] abbreviates: values determined using a double-reciprocal analysis, read-out: kinact (converted).
Where [6] appears, read: values determined using a double-reciprocal analysis, read-out: kinact/KI (converted).

On to `C=CC(=O)NCCCC[C@H](NC(=O)Cc1ccc(F)cc1)C(=O)N1CCN(C(=O)c2cccc3ccccc23)CC1` [Inhibitor 70, (S)-N-(6-(4-(1-naphthoyl)piperazin-1-yl)-5-(2-(4-fluorophenyl)acetamido)-6-oxohexyl)acrylamide], for which the Ki under setting [1] is 4.2 ± 0.9 µM. Moreover, the kinact under setting [2] is 0.00817 s⁻¹. Besides, the kinact/KI under setting [3] was 1980 M⁻¹ s⁻¹.

Take `C=CC(=O)NCCCC[C@H](NC(=O)C1C2CC3CC(C2)CC1C3)C(=O)N1CCN(C(=O)c2cccc3ccccc23)CC1` (stereo partly drawn) [Inhibitor 33, (1S,3S,5S,7S)-N-((S)-1-(4-(1-naphthoyl)piperazin-1-yl)-6-acrylamido-1-oxohexan-2-yl)adamantane-2-carboxamide]: under setting [1], the inhibition constant Ki is 15.3 ± 0.3 µM. Further, under setting [2], the kinact is 0.00383 s⁻¹. The kinact/KI under setting [3] was 248 M⁻¹ s⁻¹.

On to `C=CC(=O)NCCCC[C@H](NC(=O)c1ccncc1)C(=O)N1CCN(C(=O)c2cccc3ccccc23)CC1` [Inhibitor 20, (S)-N-(1-(4-(1-naphthoyl)piperazin-1-yl)-6-acrylamido-1-oxohexan-2-yl)isonicotinamide], for which the Ki under setting [4] is 19.3 ± 4.3 µM. For the same compound, the maximal inactivation rate constant (kinact) under setting [5] is 0.004 s⁻¹. Further, the kinact/KI under setting [6] is 212 M⁻¹ s⁻¹.

In the case of `C=CC(=O)NCCCC[C@H](NC(=O)Cc1cccc(F)c1)C(=O)N1CCN(C(=O)c2cccc3ccccc23)CC1` [Inhibitor 71, (S)-N-(6-(4-(1-naphthoyl)piperazin-1-yl)-5-(2-(3-fluorophenyl)acetamido)-6-oxohexyl)acrylamide], the Ki under setting [1] is 4.9 ± 0.5 µM. Under setting [2], the kinact is 0.0125 s⁻¹. In addition, the kinact/KI under setting [3] is 2580 M⁻¹ s⁻¹.

With `C=CC(=O)NCCCC[C@H](NC(C)=O)C(=O)N1CCN(C(=O)c2cccc3ccccc23)CC1` [Inhibitor 41, (S)-N-(6-(4-(1-naphthoyl)piperazin-1-yl)-5-acetamido-6-oxohexyl)acrylamide], the kinact is 0.0242 s⁻¹ and the kinact/KI is 735 M⁻¹ s⁻¹. Besides, under setting [4], the Ki is 33 ± 14.5 µM.

On to `C=CC(=O)NCCCC[C@H](NC(=O)C(C)(C)C)C(=O)N1CCN(C(=O)c2cccc3ccccc23)CC1` [Inhibitor 37, (S)-N-(6-(4-(1-naphthoyl)piperazin-1-yl)-6-oxo-5-pivalamidohexyl)acrylamide], for which the inhibition constant Ki under setting [1] is 8.8 ± 3.6 µM. Besides, the kinact under setting [2] is 0.00817 s⁻¹. The kinact/KI under setting [3] was 937 M⁻¹ s⁻¹.

Take `C=CC(=O)NCCCC[C@H](NC(=O)c1cn(C)cn1)C(=O)N1CCN(C(=O)c2cccc3ccccc23)CC1` [Inhibitor 22, (S)-N-(1-(4-(1-naphthoyl)piperazin-1-yl)-6-acrylamido-1-oxohexan-2-yl)-1-methyl-1H-imidazole-4-carboxamide]: under setting [1], the Ki is 22.3 ± 5 µM. Moreover, under setting [2], the kinact was 0.00467 s⁻¹. Further, the kinact/KI under setting [3] is 210 M⁻¹ s⁻¹.

On to `C=CC(=O)NCCCC[C@H](NC(=O)c1ccc(F)cc1)C(=O)N1CCN(C(=O)c2cccc3ccccc23)CC1` [Inhibitor 64, (S)-N-(1-(4-(1-naphthoyl)piperazin-1-yl)-6-acrylamido-1-oxohexan-2-yl)-4-fluorobenzamide], for which the Ki by setting is: under setting [1], 16.2 ± 7.5 µM; under setting [4], 11.6 µM. For the same compound, the kinact under setting [2] was 0.015 s⁻¹ and the kinact under setting [5] is 0.0117 s⁻¹. The kinact/KI under setting [3] was 923 M⁻¹ s⁻¹ and the kinact/KI under setting [6] is 1010 M⁻¹ s⁻¹.

As to `C=CC(=O)NCCCC[C@H](NS(=O)(=O)c1ccccc1)C(=O)N1CCN(C(=O)c2cccc3ccccc23)CC1` [Inhibitor 89, (S)-N-(6-(4-(1-naphthoyl)piperazin-1-yl)-6-oxo-5-(phenylsulfonamido)hexyl)acrylamide], the Ki under setting [4] is 88.8 ± 6.7 µM. Further, the kinact under setting [5] is 0.0105 s⁻¹. In addition, under setting [6], the kinact/KI was 118 M⁻¹ s⁻¹.

For the compound `C=CC(=O)NCCCC[C@H](NS(=O)(=O)Cc1ccccc1)C(=O)N1CCN(C(=O)c2cccc3ccccc23)CC1` [Inhibitor 88], under setting [1], the inhibition constant Ki is 46.7 ± 10.2 µM. Also, the inactivation rate constant (kinact) under setting [2] was 0.00883 s⁻¹. The kinact/KI under setting [3] was 190 M⁻¹ s⁻¹.

With `C=CC(=O)NCCCC[C@H](NC(=O)c1ccccc1)C(=O)N1CCN(C(=O)c2cccc3ccccc23)CC1` [Inhibitor 61, (S)-N-(1-(4-(1-naphthoyl)piperazin-1-yl)-6-acrylamido-1-oxohexan-2-yl)benzamide], the inactivation rate constant (kinact) was 0.0118 s⁻¹ and the kinact/KI was 983 M⁻¹ s⁻¹. In addition, the inhibition constant (Ki) under setting [1] is 27.6 ± 8.1 µM. In addition, for the setting “pH 6.95”, the kinact/KI is 807 M⁻¹ s⁻¹. The Ki under setting [4] is 12 µM.

`C=CC(=O)NCCCC[C@H](NC(=O)C1CC1)C(=O)N1CCN(C(=O)c2cccc3ccccc23)CC1` [Inhibitor 36, (S)-N-(1-(4-(1-naphthoyl)piperazin-1-yl)-6-acrylamido-1-oxohexan-2-yl)cyclopropanecarboxamide]: under setting [1], the Ki was 10.6 ± 3.6 µM. Moreover, under setting [2], the kinact was 0.017 s⁻¹. Under setting [3], the kinact/KI was 1610 M⁻¹ s⁻¹.

For the compound `C=CC(=O)NCCCC[C@H](NC(=O)CC(C)C)C(=O)N1CCN(C(=O)c2cccc3ccccc23)CC1` [Inhibitor 38, (S)-N-(1-(4-(1-naphthoyl)piperazin-1-yl)-6-acrylamido-1-oxohexan-2-yl)-3-methylbutanamide], the Ki under setting [1] was 9.7 ± 1.9 µM. The maximal inactivation rate constant (kinact) under setting [2] is 0.0107 s⁻¹. Besides, the kinact/KI under setting [3] is 1110 M⁻¹ s⁻¹.

Regarding `C=CC(=O)NCCCC[C@H](NC(=O)c1cccc(F)c1)C(=O)N1CCN(C(=O)c2cccc3ccccc23)CC1` [Inhibitor 63, (S)-N-(1-(4-(1-naphthoyl)piperazin-1-yl)-6-acrylamido-1-oxohexan-2-yl)-3-fluorobenzamide], the Ki is 13.4 ± 3.5 µM under setting [1] and 9.9 µM under setting [4]. Moreover, the inactivation rate constant (kinact) under setting [2] is 0.0107 s⁻¹ and the kinact under setting [5] was 0.0085 s⁻¹. The kinact/KI is 797 M⁻¹ s⁻¹ under setting [3] and 860 M⁻¹ s⁻¹ under setting [6].

As to `C=CC(=O)NCCCC[C@H](NC(=O)c1nccn1C)C(=O)N1CCN(C(=O)c2cccc3ccccc23)CC1` [Inhibitor 21, (S)-N-(1-(4-(1-naphthoyl)piperazin-1-yl)-6-acrylamido-1-oxohexan-2-yl)-1-methyl-1H-imidazole-2-carboxamide], under setting [1], the Ki was 15.7 ± 4.5 µM. Also, the kinact under setting [2] was 0.003 s⁻¹. Further, under setting [3], the kinact/KI is 192 M⁻¹ s⁻¹.

As for `C=CC(=O)NCCCC[C@H](NC(=O)CCCc1ccccc1)C(=O)N1CCN(C(=O)c2cccc3ccccc23)CC1` [Inhibitor 69, (S)-N-(1-(4-(1-naphthoyl)piperazin-1-yl)-6-acrylamido-1-oxohexan-2-yl)-4-phenylbutanamide], the inhibition constant (Ki) under setting [1] is 5.3 ± 0.6 µM. In addition, under setting [2], the inactivation rate constant (kinact) is 0.0035 s⁻¹. The kinact/KI under setting [3] was 660 M⁻¹ s⁻¹.

Take `C=CC(=O)NCCCC[C@H](NC(=O)c1ccccn1)C(=O)N1CCN(C(=O)c2cccc3ccccc23)CC1` [Inhibitor 18, (S)-N-(1-(4-(1-Naphthoyl)piperazin-1-yl)-6-acrylamido-1-oxohexan-2-yl)picolinamide]: the Ki under setting [4] is 41.4 ± 3.8 µM. Moreover, the kinact under setting [5] is 0.0065 s⁻¹. Besides, the kinact/KI under setting [6] was 160 M⁻¹ s⁻¹.

Take `C=CC(=O)NCCCC[C@H](NC(=O)CC)C(=O)N1CCN(C(=O)c2cccc3ccccc23)CC1` [Inhibitor 40, (S)-N-(6-(4-(1-naphthoyl)piperazin-1-yl)-6-oxo-5-propionamidohexyl)acrylamide]: under setting [1], the inhibitory constant (Ki) was 5.1 ± 1 µM. Besides, the kinact under setting [2] was 0.00883 s⁻¹. For the same compound, the kinact/KI under setting [3] was 1720 M⁻¹ s⁻¹.

Consider `C=CC(=O)NCCCC[C@H](NC(=O)Cc1ccccc1OC)C(=O)N1CCN(C(=O)c2cccc3ccccc23)CC1` [Inhibitor 75, (S)-N-(6-(4-(1-naphthoyl)piperazin-1-yl)-5-(2-(2-methoxyphenyl)acetamido)-6-oxohexyl)acrylamide], for which the inhibition constant (Ki) under setting [1] is 4.6 ± 2.9 µM. In addition, under setting [2], the maximal inactivation rate constant (kinact) was 0.0233 s⁻¹. Under setting [3], the kinact/KI is 4980 M⁻¹ s⁻¹.
